Test [1] deals with SK-MEL-2. Kind of test: Antitumor activity against human SK-MEL-2 cells xenografted in BALB/c nude mouse assessed as T/C ratio at 5 mg/kg/day, ip administered for 30 days relative to control. The test is classed as functional. Conditions: time 30 day. A general note: In xenograft studies the graft and the host belong to different species.
For test [2], the system named is SK-MEL-2. Briefly: Antiproliferative activity against human SK-MEL-2 cells assessed as inhibition of colony formation at 1.5 uM measured after 10 days by crystal violet staining based assay. The test is classed as functional, cell-based. The following applies: time 10.0 day.
The test system of test [3] is SK-MEL-2. Kind of test: Synergistic cytotoxicity against human SK-MEL-2 cells expressing NRAS mutant assessed as combination index measured for 48 hrs in presence of MK2206 by MTT assay. The class given is functional. (In general: Tetrazolium assays rely on reduction of a dye to a coloured formazan, in cell work by metabolically active cells.)
Test [4] deals with SK-MEL-2. Briefly: Antitumor activity against human SK-MEL-2 cells xenografted in BALB/c nude mouse assessed as reduction in tumor weight at 5 mg/kg/day, ip administered for 30 days by electronic caliper method. The test is classed as functional, organism-based. Conditions: time 30.0 day.
In test [5] the test system is SK-MEL-2. Briefly: Synergistic cytotoxicity against human SK-MEL-2 cells expressing NRAS mutant assessed as combination index measured for 48 hrs in presence of Rapamycin by MTT assay. The class given is functional.
Test [6] concerns SK-MEL-2. Briefly: Antitumor activity against human SK-MEL-2 cells xenografted in BALB/c nude mouse assessed as tumor growth inhibition at 5 mg/kg/day, ip by electronic caliper method. The test is classed as functional, organism-based. The following applies: time 30.0 day, TDE = time-dependent effect.
For test [7], the system named is SK-MEL-2. Kind of test: Antitumor activity against human SK-MEL-2 cells xenografted in BALB/c nude mouse assessed as tumor growth inhibition at 5 mg/kg/day, ip administered for 30 days relative to control. The test is classed as functional. The following applies: SK-MEL-2, 720 h, time 30 day, read-out: TGI.

Activity calls are given as the source filed them. The calls are words filed in the database; no cut-off is given here.

`Cn1cnc2c(F)c(Nc3ccc(Br)cc3F)c(C(=O)NOCCO)cc21` [BINIMETINIB]: the T/C with SK-MEL-2 [1] was found to be 24.8%. Further, the inhibition entry in the test with SK-MEL-2 [2] is “Active”. In addition, the CI in the test on SK-MEL-2 [3] and in the test on SK-MEL-2 [5] was 0.5 throughout. The outcome in the test with SK-MEL-2 [4] was Active. For the same compound, the Activity entry in the test on SK-MEL-2 [6] was “Tde”. Also, in the test with SK-MEL-2 [7], the inhibition in vivo at 5 mg/kg/day was determined as 70.4%.

One may read the T/C as the ratio of treated to control.

(Values after ChEMBL document CHEMBL5380835, “Discovery of Clinically Used Octenidine as NRAS Repressor That Effectively Inhibits NRAS-Mutant Melanoma” (J Med Chem, 2023).)
